In paper PMC3243694, “Integrated Dataset of Screening Hits against Multiple Neglected Disease Pathogens” (PLoS Neglected Tropical Diseases, 2011):
In brackets after ≈: the same amount, converted by molar mass.

Columns and labels:
[1] = system: Plasmodium falciparum K1 strain; experiment: Anti-Plasmodium activity assay (Malstat); type: cell-based; conditions: P. falciparum K1, 72 h
Description: (§1) The compound set was tested against the following parasites: intra-erythrocytic forms in human red blood cells of P. falciparum K1 strain (malaria), [16], [32], [33], [35], bloodstream forms of T. brucei Squib 427 strain (human African trypanosomiasis, HAT), [31], [32], [34], intracellular amastigotes of T. cruzi Tulahuen CL2, beta- galactosidase strain (Chagas' Disease), [32]–[35], intracellular amastigotes of L. infantum MHOM/MA(BE)/67 (leishmaniasis), [32]–[36], larval and/or adult worms of S. mansoni Puerto Rican strain (schistosomiasis), [31], [37], microfilariae of B. malayi (lymphatic filariasis), [30] and microfilariae of O. ochengi or O. lienalis (onchocerciasis), [30]. It should be noted that the human pathogen for onchocerciasis is Onchocerca volvulus, but due to lack of a suitable in vitro assay or animal models for this pathogen, O. ochengi and lienalis, which are both animal pathogens, are used in the primary and secondary assays, [30].

[2] = system: Onchocerca (lienalis or ochengi) microfilariae; experiment: Anti-Onchocerca microfilariae motility assay; type: cell-based, Onchocerca lienalis or O. ochengi
Description: as §1
4240 compound s were screened against O. ochengi at the University of Buea in Cameroon, while a subset of […] compounds was successfully screened in UK by the Northwick Park Institute for Medical Research against O. lienalis, at a uniform molarity. […] After removing molecules that were toxic to mammalian cells (IC50<5 µg/ml), 292 molecules remained for further evaluation. […] From the latter sub-set, […] distinct chemical series and one singleton [structure # 35] were active against both microfilaria and adults. One series [structures # 2, 3] was deemed not interesting due to lack of selectivity against mammalian cells. The remaining series is being transferred to ANDI for further progression as part of a new collaboration.

[3] = system: MRC-5 cell line (diploid human embryonic lung fibroblast); experiment: Cytotoxicity on MRC-5 cells; type: cell-based
Description: [table] An important part of the screen is the evaluation of all compounds for cytotoxicity using the diploid human embryonic lung fibroblast MRC-5 cell line (Figure 2). Further evaluation of cytotoxicity also takes advantage of the assays for intracellular protozoan parasites, as in the case of L. infantum and T. cruzi, which include murine peritoneal macrophage host cells and MRC-5SV2 human lung fibroblast cells, respectively, in the culture system.

[4] = system: Brugia malayi adult worms; experiment: Anti-Brugia malayi adult worm motility assay; type: cell-based; conditions: B. malayi adult worms
Description: In some cases, particularly for the antifilarial screens, a second whole organism test with adult stage parasites is included prior to animal evaluation. The decision to utilize microfilariae for primary screening was based on throughput and biological considerations. It is difficult to acquire enough adult filariae to enable screening more than 1000 compounds per year, a rate far lower than needed for timely evaluation of the available compounds. In light of this situation, and considering that we are targeting molecules that are active on both stages, microfilariae screening was adopted as a suitable filter to identify compounds with potential macrofilaricidal activity. As result of logistics issues attributed to lost shipments of some compounds, only 6160 molecules of the 10,000 compound set were tested, at a uniform molarity, against B. malayi, including 6063 against microfilariae and 756 against adult worms (these sets overlap). […] Greatest priority was given to compounds with activity against adult worms, as no macrofilaricide is available for use in control campaigns and the activity of ivermectin as a microfilaricidal agent is unlikely to be bettered in a new series. […] These were titrated to determine an IC50 value to support prioritization. Following cytotoxicity triage [structures # 1, 4, 6], eight compounds met the activity criterion for adult worms (i.e., 100% inhibition of adult worm motility), four of which were also active against microfilariae [structures # 14, 29, 30, 32]. […] Of these, the most interesting was TDR76699 [structure # 29]; this compound has very good activity against adult worms (IC50 = 0.1 µg/ml) and is also active against microfilariae (IC50 = 0.7 µg/ml). None of the other compounds tested against adult parasites had IC50 values ≤0.5 µg/ml, a threshold which would reduce concerns about specificity. However, a few series [structures # 31, 33, 34], appear interesting for future medicinal chemistry projects.

[5] = system: Brugia malayi microfilariae; experiment: Anti-Brugia malayi microfilariae motility assay; type: cell-based; conditions: B. malayi microfilariae
Description: as §1
As result of logistics issues attributed to lost shipments of some compounds, only 6160 molecules of the 10,000 compound set were tested, at a uniform molarity, against B. malayi, including 6063 against microfilariae and 756 against adult worms (these sets overlap). […] Greatest priority was given to compounds with activity against adult worms, as no macrofilaricide is available for use in control campaigns and the activity of ivermectin as a microfilaricidal agent is unlikely to be bettered in a new series. Of the test set, 53 compounds met the activity criterion for microfilariae (100% motility reduction) and an additional 58 inhibited adult worm motility ≥75% at 10 µM. These were titrated to determine an IC50 value to support prioritization. Following cytotoxicity triage [structures # 1, 4, 6], eight compounds met the activity criterion for adult worms (i.e., 100% inhibition of adult worm motility), four of which were also active against microfilariae [structures # 14, 29, 30, 32]. […] Of these, the most interesting was TDR76699 [structure # 29]; this compound has very good activity against adult worms (IC50 = 0.1 µg/ml) and is also active against microfilariae (IC50 = 0.7 µg/ml). None of the other compounds tested against adult parasites had IC50 values ≤0.5 µg/ml, a threshold which would reduce concerns about specificity. However, a few series [structures # 31, 33, 34], appear interesting for future medicinal chemistry projects.

[6] = system: Trypanosoma brucei brucei Squib-427 strain; experiment: Antitrypanosomal activity assay, T. brucei (resazurin); type: cell-based; conditions: T. brucei Squib 427 bloodstream forms, 72 h
Description: as §1

[7] = system: Trypanosoma cruzi, Tulahuen CL2 strain; experiment: Antitrypanosomal activity assay, T. cruzi in MRC-5 cells; type: cell-based; conditions: T. cruzi Tulahuen CL2 in MRC-5 cells, 7 days
Description: as §1
171 of the 744 actives passed the initial criterion of IC50<1 µg/ml for T. cruzi Tulahuen CL2, beta galactosidase strain maintained on MRC-5SV2 cells in MEM medium (MRC-5 cell/parasite inoculum: 4.10^3 cells/well+4.10^4 parasites/well), supplemented with […] L-glutamine, 16.5 mM NaHCO3 and 5% heat inactivated fetal calf serum. […] Of these, 109 were eliminated [structures #1–6] for poor selectivity versus mammalian cells (SI<50) and an additional 11 due to undesirable chemical attributes. The remaining 51 compounds were sorted into 10 series (45 compounds) and 6 singletons [structures # 21, 22]. Two of these series with excellent potency against T. cruzi, limited activity against other protozoa and SI values >50 (not shown), have been transferred to DNDi for further evaluation.

[8] = system: Schistosoma mansoni adult worms; experiment: Anti-Schistosoma activity assay (adult worm motility); type: cell-based; conditions: S. mansoni adult worms; 12.5 µM (method: 10 µg/ml or 12.5 µM)
Description: as §1
A subset of 9478 of the 10,000 compound collection was tested against the Puerto Rican strain of S. mansoni. 6144 of these were tested in a primary larval assay followed by the ex-vivo adult secondary screen. The remainder was screened only in the adult assay. […] The 65 compounds were sorted by chemical attractiveness, potency against adult schistosomes in culture, selectivity against other parasites, and toxicity to mammalian cells in culture. Based on this analysis, 5 series encompassing 13 compounds were chosen for advancement through the African Network for Drug and Diagnostic Innovation (ANDI) and other PDPs. Representative structures [structures # 13, 27, 28] are shown (Table S1). These compounds are unburdened by obvious toxic moieties, have acceptable compliance with the Lipinski rules, are selectively active against schistosomes and are not overtly toxic to mammalian cells. It has unfortunately not been possible to titrate all of these hits in culture; of about 50% for which such data are available, none has an IC50<2 µg/ml (which is the initial potency criteria).

Row | Structure (SMILES) | MAL IC50 [1] [µg/mL] | ONC/MF % Motility Reduction at 12.5µM [2] [%] | CYT IC50 [3] [µg/mL] | LF/AW % Motility Reduction at 12.5µM [4] [%] | LF/MF % Motility Reduction at 12.5µM [5] [%] | HAT IC50 [6] [µg/mL] | CHA IC50 [7] [µg/mL] | SCH % Motility Reduction at 12.5µM [8] [%] | IC50 adult worms ([4]; titration) [µg/mL] | IC50 microfilariae ([5]; titration) [µg/mL]
1 | O=C(COc1ccc(Cl)cc1Cl)Nc1nnc(C23CC4CC(CC(C4)C2)C3)s1 [TDR76660] | >13.15 | 0 | >13.15 | 0 | 100 | >13.15 | >13.15 | 0 |  | 
2 | Cc1cccc(-n2nc3c(c2NC(=O)Nc2cccc(Cl)c2)CSC3)c1 [TDR76699] | >11.55 | 33 | >11.55 | 100 | 100 | >11.55 | 9.48 | 25 | 0.1 (≈ 0.26 µM) | 0.7 (≈ 1.82 µM)
3 | O=C(Nc1nc2c(F)cc(F)cc2s1)c1nc2ccccc2s1 [TDR77323] | >10.42 |  | >10.42 | 50 | 100 |  | >10.42 | 0 |  | 
4 | COc1cccc2sc(Nc3nnc(-c4cccs4)o3)nc12 [TDR77585] | 1.25 |  | 1.83 | 50 | 100 | 0.35 | 0.31 | 0 |  | 
5 | CN(C)CCN(C(=O)c1cccc(N2C(=O)CCC2=O)c1)c1nc2ccc(Br)cc2s1 [TDR79337] | 1.45 | 0 | >16.14 | 0 |  | 0.36 | 4.94 | 33 |  | 
6 | CSc1cccc(C(=O)N(Cc2cccnc2)c2nc3ccc(S(C)(=O)=O)cc3s2)c1 [TDR84433] | 8.28 | 0 | >14.09 |  | 0 | >14.09 | 0.38 | 0 |  | 
7 | O=C(Cc1csc(NC(=O)C2CCC(=O)N2)n1)NCc1ccccn1 (centres unmarked) [TDR84826] | >10.78 | 50 | >10.78 |  | 20 | >10.78 | >10.78 | 100 |  | 
8 | CC(C)(C)n1ncc2c(=O)n(CCC(=O)NCc3ccccc3Cl)cnc21 [TDR84851] | >11.64 | 0 | >11.64 |  | 20 | >11.64 | >11.64 | 100 |  | 
9 | O=S(=O)(c1cccnc1)N1CCN(c2ccc(-c3cccs3)nn2)CC1 [TDR85115] | >11.6 | 0 | >11.6 |  | 50 | >11.6 | >11.6 | 0 |  | 
10 | O=C(c1ccccc1)N1CCN(c2ccc(Nc3ccccn3)nn2)CC1 [TDR86082] | >10.8 | 0 | >10.8 |  | 0 | >10.8 | >10.8 | 0 |  | 
11 | O=S(=O)(c1cccc(F)c1)N1CCN(c2ccc(Nc3cccnc3)nn2)CC1 [TDR86129] | 5.44 | 0 | 0.94 |  | 0 | >12.43 | >12.43 | 0 |  | 
